Measurements published in paper PMC11181081 (Proceedings of the National Academy of Sciences of the …, 2024).

How the values were obtained:
[1] = test system: ER-regulated genes PGR, GREB1, TFF1/pS2; assay: qPCR of ER target genes in MCF-7 cells; type: cell-based; conditions: MCF-7 in normal FBS-containing media, ~1 pM E2
[2] = test system: primary female mouse myotubes; assay: Primary myotube size by high-content imaging; type: cell-based; conditions: 50 pM, 5 d
Greb1 expression = assay: Greb1 qPCR in primary myotubes; type: cell-based, mouse; conditions: steroid-free conditions, 24 h
MCF-7 WT cells = assay: Cell proliferation assay, MCF-7 WT; conditions: MCF-7 with ER-WT, charcoal-stripped FBS, 5 d

SMILES: C[C@]12CC[C@@H]3c4ccc(O)cc4CC[C@H]3[C@@H]1CC[C@@H]2O [Compound E2, 17β-estradiol]
- Gene expression profile in full media (in words) [1]: less induction of gene expression
- Myotube diameter / tube area (in words) [2]: maintained primary myotube diameter
- Greb1 expression dose response (in words) (Greb1 expression): biphasic with an inflection point below the ligand Kd
- Effect on proliferation (activity profile, in words) (MCF-7 WT cells): induced cell growth at doses 2 logs below the Kd
